Data taken from patent US9279812B2, “Neuregulin-1-based prognosis and therapeutic stratification of colorectal cancer” (UNIVERSITEIT GENT, priority 2011, dated 2016).

How the values were obtained:
HCT-8/E11 cells [1] = test: Single cell collagen invasion assay, HCT-8/E11; format: cell-based, human; conditions: for CM^BM-MSC-induced invasion (invasion index) / CM^BM-MSC-induced morphological response (factor shape): cetuximab 3 μM, lapatinib 1 μM, trastuzumab and pertuzumab 25 μg/ml
Experimental: (§1) Collagen invasion assays were performed as described previously (45). Briefly, 1×10^5 CRC cells were seeded on type I collagen-coated 6-well plates and treated with CM derived from 5×10^5 BM-MSC or T-MC supplemented with DMEM 10% FBS and antibiotics as indicated.
(§2) Morphology and invasion into collagen was analysed after 24 hours and quantified by means of the factor shape ([perimeter]^2/[4πarea]) and invasion index. The number of invasive and noninvasive cells was counted in 10 randomly selected microscopic fields with a 20× objective and 10× eye piece by two blinded observers using an inverted phase-contrast microscope (DMI 3000B; Leica, Wetzlar, Germany). The invasion index was calculated as the ratio of the number of cells that invaded the gel divided by the total number of cells counted in each field. Collagen matrices were fixed in 3% paraformaldehyde for 10 minutes and phalloidin-TRITC (Sigma-Aldrich) staining as described (45). Cells were imaged with a Zeiss 510 META confocal laser-scanning microscope (Carl Zeiss, Micro-imaging Inc., Heidelberg, Germany) using a 488 argon and a 543 HeNe laser. Images were acquired using a Plan Apochromat 63×/1.4 oil DIC or a Plan Apochromat 100×/1.4 oil DIC objective. All the images shown are collapsed z-stacks.

HER3 = test: Western blot of Y1289 p-HER3 (HER3 activation) in HCT-8/E11 cells; format: cell-based, human; conditions: for decrease in CM^BM-MSC-induced HER3 activation (Y1289 p-HER3): HCT-8/E11, CM^BM-MSC 15 minutes, cetuximab 3 μM, lapatinib 1 μM, trastuzumab and pertuzumab 25 μg/ml
Experimental: (§3) Cells were harvested with Laemmli lysis buffer (0.125M Tris-HCl (pH=6.8), 10% glycerol, 2.3% sodium dodecyl sulfate [SDS]). Cell surface proteins were isolated by biotinylation (Pierce). For the detection of phosphorylated proteins, cells were grown at 70% confluence and treated for 15 minutes as indicated. Cells were harvested with NP-40 lysis buffer (1% Nonidet P-40 [NP-40][Sigma-Aldrich], 1% Triton X-100 [Bio-Rad] in phosphate-buffered saline [PBS]) and the following protease inhibitors: aprotinin (10 μg/mL), leupeptin (10 μg/mL) (ICN Biomedicals, Costa Mesa, Calif.), phenylmethylsulfonyl fluoride (1.72 mM), NaF (100 mM), NaVO3 (500 mM), and Na4P2O7 ([…]) (Sigma-Aldrich). Cell lysates (25 μg) and CM (20 μl) were suspended in Laemmli sample buffer and boiled for 5 minutes at 95° C. For immunoprecipitation, cells were harvested with NP-40 lysis buffer, and protease inhibitors. Anti-rabbit antibodies were covalently coupled to sheep anti-rabbit IgG dynabeads (Invitrogen) and then incubated for 2 hours at 4° C. with 500 μg of cell lysate or normal rabbit IgG antibody (R&D Systems) as a negative control. Immunoprecipitates were washed five times with lysis buffer, eluted with 100 μl of Laemmli lysis buffer, and boiled at 95° C. for 5 minutes. Samples were run on NuPAGE 4%-20% Bis-Tris gradient gels (Invitrogen), transferred to polyvinylidene fluoride membranes, blocked in 5% nonfat milk in PBS or 4% bovine serum albumin (BSA) in PBS for phosphorylated proteins with 0.5% Tween-20, and immunostained. Scanning densitometry was carried out with the Quantity One Program (Bio-Rad).

AKT = test: Western blot of S473 p-AKT (AKT activation) in HCT-8/E11 cells; format: cell-based, human; conditions: for reduction of AKT activation (S473 p-AKT) in CM^BM-MSC-treated cells: HCT-8/E11, CM^BM-MSC 15 minutes, cetuximab 3 μM, lapatinib 1 μM, trastuzumab and pertuzumab 25 μg/ml
Experimental: as §3

HER3 (human) = HER3 (human) (UniProt P21860); test: cell-based or functional assay
[2] = test system: HCT-8/E11+BM-MSC xenografts; test: s.c. xenografts of HCT-8/E11 cells with BM-MSC in Swiss nu/nu mice; format: in vivo
Experimental: Animal studies were approved by the Local Ethical Committee for Animal Experiments, Faculty of Medicine and Health Sciences, Ghent University, Belgium. Four-week-old female Swiss nu/nu mice (10 animals per group) (Charles River Laboratories, Brussels, Belgium) were inoculated subcutaneously (s.c.) with 10^6 CRC cells (HCT-8/E11, SW480 and HCT 116) either alone or combined with 2×10^6 BM-MSC suspended in 100 μl sterile PBS. To assess the effect of soluble factors on tumorigenesis, mice were inoculated s.c. with 10^6 cancer cells in 100 μl sterile CM derived from 2.5×10^6 BM-MSC, or control medium. For these experiments, intratumoral injection of the CM (50 μl) was performed every three days. […] Tumor volume was estimated by using the equation, V=0.4×a×b^2, where V is the volume, a is the length of the major axis of the tumor, and b is the length of its minor axis. he animals were sacrificed when the tumors were approximately 1-1.5 cm^3, in compliance with regulations for the use of vertebrate animals in research. Primary tumors were extracted, weighted and fixed in 4% buffered formol for 12 hours, followed by a wash with PBS. Fixed tumors were transferred to 70% ethanol until use. Tumors were embedded in paraffin, sectioned and stained with H&E. Immunohistochemistry (IHC) using TUNEL, anti-α-SMA (Biogenex), anti-vimentin and anti-Ki67 antibodies was performed on paraffin sections, using a NexES automated slide staining system (Ventana Medical Systems, Tucson, Ariz.). Cell proliferation (Ki67 positivity) was quantified as % of positive cancer cells per high power field averaged across 12 images from 2 primary tumors per cell line.

HCT-8/E11 cells [3] = test: Assessment of cell numbers (viable cells, serum-free); format: cell-based, human
Experimental: To assess the effect of rNRG-β1 or CM on cell numbers, a total of 9 wells of seeded cells were counted for each condition (triplicate samples×3 countings). First, 1×10^4 CRC cells were seeded on a 6-well plate in DMEM supplemented with 10% FCS. After 24 hours, cells were treated as indicated under serum-free conditions; medium was changed every 3 days. The total number of viable cells in each well was counted with a Countess automated cell counter (Invitrogen) every three days for 9 days; trypan blue staining was used for exclusion of dead cells.

BAD = test: Western blot of S136 p-BAD in HCT-8/E11; format: cell-based, human; conditions: rNRG-β1-treated HCT-8/E11
Experimental: as §3, with “Samples were run on NuPAGE 4%-20% Bis-Tris gradient gels (Invitrogen), transferred to polyvinylidene fluoride membranes, blocked in 5% nonfat milk in PBS or 4% bovine serum albumin (BSA) in PBS for phosphorylated proteins with 0.5% Tween-20, and immunostained.” left out

SW480 cells = test: Single cell collagen invasion assay, SW480; format: cell-based, human; conditions: SW480, 10 ng/ml, 24 hours, P=0.003
Experimental: as §1, §2

HER2 = test: Western blot of Y1196 and Y1248 p-HER2 in HCT-8/E11; format: cell-based, human; conditions: 10 ng/ml, 15 minutes
Experimental: as §3, with “Samples were run on NuPAGE 4%-20% Bis-Tris gradient gels (Invitrogen), transferred to polyvinylidene fluoride membranes, blocked in 5% nonfat milk in PBS or 4% bovine serum albumin (BSA) in PBS for phosphorylated proteins with 0.5% Tween-20, and immunostained.” left out

HCT 116 cells = test: Single cell collagen invasion assay, HCT 116; format: cell-based, human; conditions: HCT 116, 10 ng/ml, 24 hours, P=0.007
Experimental: as §1, §2

BAX/BCL-2 = test: Western blot of BAX and BCL-2 expression in HCT-8/E11; format: cell-based, human; conditions: HCT-8/E11, 10 ng/ml, 6 hours
Experimental: as §3, with “Samples were run on NuPAGE 4%-20% Bis-Tris gradient gels (Invitrogen), transferred to polyvinylidene fluoride membranes, blocked in 5% nonfat milk in PBS or 4% bovine serum albumin (BSA) in PBS for phosphorylated proteins with 0.5% Tween-20, and immunostained.” left out

PARP = test: Western blot of PARP cleavage in HCT 116; format: cell-based, human; conditions: HCT 116, 10 ng/ml, 6 hours, compared to controls
Experimental: as §3, with “Samples were run on NuPAGE 4%-20% Bis-Tris gradient gels (Invitrogen), transferred to polyvinylidene fluoride membranes, blocked in 5% nonfat milk in PBS or 4% bovine serum albumin (BSA) in PBS for phosphorylated proteins with 0.5% Tween-20, and immunostained.” left out

Molecule: Cn1ncc(Cl)c1-c1cc(C(=O)N[C@H](CN)Cc2ccc(F)c(F)c2)oc1Cl [GSK2141795]
- CM^BM-MSC-induced invasion (HCT-8/E11 cells [1]; 0.1 μM, 24 hours): able to block
- CM^BM-MSC-induced invasion (HCT-8/E11 cells [1]; 1 μM, 24 hours): able to block

Molecule: CS(=O)(=O)CCNCc1ccc(-c2ccc3ncnc(Nc4ccc(OCc5cccc(F)c5)c(Cl)c4)c3c2)o1 [lapatinib]
- decrease in CM^BM-MSC-induced HER3 activation (Y1289 p-HER3) (HER3): 72%
- CM^BM-MSC-induced invasion (invasion index) (HCT-8/E11 cells [1]): blocked
- CM^BM-MSC-induced morphological response (factor shape) (HCT-8/E11 cells [1]): blocked
- reduction of AKT activation (S473 p-AKT) in CM^BM-MSC-treated cells (AKT): 82%

Molecule: Recombinant human NRG-β1 EGF domain (from UniProt Q02297 177-241) (ligand)
- Y1289 p-HER3 in HCT-8/E11 cells, Western blot, 15 minutes (HER3 (human)): 0.25 ng/mL

Molecule: pertuzumab: recombinant, humanized mAb that specifically binds HER2 and prevents HER2 homo- and HER2/HER3 heterodimerisation
- decrease in CM^BM-MSC-induced HER3 activation (Y1289 p-HER3) (HER3): 67%
- BM-MSC-enhanced tumorigenesis of HCT-8/E11 cells ([2]; 600 μg/mouse i.p.): significantly delayed
- tumor weight ([2]; 600 μg/mouse i.p. three times a week, P=0.004): decreased
- tumor volume ([2]; 600 μg/mouse i.p. three times a week, P=0.035): reduced
- Ki67 proliferation index, difference vehicle vs treatment ([2]; 95% CI −4.8 to 15.2, P=0.276): 5.2
- Ki67 proliferation index ([2]; viable areas of resected xenografts): did not significantly affect
- CM^T-MC-increased invasion (HCT-8/E11 cells [1]; HCT-8/E11, 24 hours, pertuzumab 25 μg/ml): partly inhibited
- CM^BM-MSC-induced invasion (invasion index) (HCT-8/E11 cells [1]): blocked
- CM^BM-MSC-induced morphological response (factor shape) (HCT-8/E11 cells [1]): blocked
- reduction of AKT activation (S473 p-AKT) in CM^BM-MSC-treated cells (AKT): 79%
- CM^BM-MSC-induced CRC cell survival (total number of viable cells) (HCT-8/E11 cells [3]; pertuzumab 25 μg/ml, HCT-8/E11): significantly decreased
- number of viable cells under control conditions (HCT-8/E11 cells [3]; pertuzumab 25 μg/ml, no CM): no statistically significant effect
- CM^T-MC-increased growth of HCT-8/E11 cells (trophic effect) (HCT-8/E11 cells [3]; pertuzumab 25 μg/ml, serum-free): blocked

B1: rNRG-β1: Recombinant human NRG-β1 EGF domain supplied by R&D Systems (protein)
chain: SHLVKCAEKEKTFCVNGGECFMVKDLSNPSRYLCKCPNEFTGDRCQNYVMASFYKHLGIEFMEAE
- levels of S136 p-BAD (BAD): higher levels
- morphological changes and invasion into a collagen matrix (SW480 cells): induced
- HER2 activation (HER2): induced HER2 activation
- concentration at which phosphorylation of HER3 was significant (HER3; HCT-8/E11, 15 minutes): 0.25 ng/mL
- morphological changes and invasion into a collagen matrix (HCT 116 cells): induced
- morphological changes and invasion into a collagen matrix (HCT-8/E11 cells [1]; HCT-8/E11, 10 ng/ml, 24 hours, P=0.049): induced
- BAX/BCL-2 ratio (BAX/BCL-2): reduced
- levels of S473 p-AKT (AKT; rNRG-β1-treated HCT-8/E11): higher levels
- PARP cleavage (PARP): reduced
- HCT-8/E11 cell number (HCT-8/E11 cells [3]; 0.1, 1, 10 ng/ml, serum-free, P=0.002 at 10 ng/ml): dose-dependent increase
